These results are taken from ChEMBL document CHEMBL1129529, “Synthesis and antiviral activity of pyranosylphosphonic acid nucleotide analogues” (J Med Chem, 1996).

Assay [1] deals with NHDF. Briefly: Cytotoxic activity against NHDF cell growth. The class given is functional. As to conditions: Homo sapiens.
A short description of assay [2]: Selectivity index is defined as ratio between IC50(NHDF) / IC50(HCMV). Type of assay: functional.
Assay [3] relates to NHDF. As to the kind of experiment: Inhibitory activity against replication of HCMV in NHDF cells. The class given is functional, cell-based. As to conditions: Homo sapiens.
Assay [4] has as its system MRC5. As to the kind of experiment: Inhibitory activity against cytopathic effect of HSV-2(E 194) in MRC-5 cells. The class given is functional, cell-based. As to conditions: Homo sapiens.
Assay [5] deals with NHDF. As to the kind of experiment: Inhibitory activity against replication of HCMV in NHDF cells; Not active. The class given is functional, cell-based, Homo sapiens.
The subject of assay [6] is MRC5. As to the kind of experiment: Inhibitory activity against cytopathic effect of HSV-2(E 194) in MRC-5 cells; Not active. The class given is functional, cell-based, Homo sapiens.
For assay [7], the system named is NHDF. Briefly: Cytotoxic activity against NHDF cell growth; Not active. The class given is functional, cell-based, Homo sapiens.

Regarding `Nc1ccn(C2CCC(P(=O)(O)O)OC2CO)c(=O)n1` (stereo not given), in the assay on NHDF [1], the 50% cytotoxic concentration (CC50) is > 1000 µM. Further, the Selectivity ratio in assay [2] is > 12. This compound also showed an IC50 with NHDF [3] of 80 µM.
For `CC1OC(P(=O)(O)O)=CCC1n1ccc(N)nc1=O` (stereo not given), the CC50 in the assay on NHDF [1] was > 1000 µM. Besides, the Selectivity ratio in assay [2] is > 3.3. For the same compound, the IC50 in the assay on MRC5 [4] is > 400 µM; in the assay with NHDF [3] it was 300 µM.
Take `Nc1ccn([C@H]2C=C[C@@H](P(=O)(O)O)O[C@H]2CO)c(=O)n1`: the IC50 entry in the assay on NHDF [5], in the assay on MRC5 [6] and in the assay on NHDF [7] was “Not Active” throughout.
Take `CC1OC(P(=O)(O)O)=CCC1n1cnc2c(N)ncnc21` (stereo not given): the IC50 result with NHDF [5], in the assay with MRC5 [6] and in the assay with NHDF [7] was “Not Active” each time.
Consider `Cc1cn(C2C=CC(P(=O)(O)O)OC2C)c(=O)[nH]c1=O` (stereo not given), for which the IC50 result in the assay with NHDF [5], in the assay on MRC5 [6] and with NHDF [7] was “Not Active” throughout.
Consider `Cc1cn(C2CC=C(P(=O)(O)O)OC2C)c(=O)[nH]c1=O` (stereo not given), for which the IC50 result in the assay with NHDF [5], in the assay on MRC5 [6] and in the assay on NHDF [7] was “Not Active” throughout.
For the compound `Nc1ccn([C@@H]2C=C[C@H](P(=O)(O)O)O[C@@H]2CO)c(=O)n1`, the CC50 in the assay on NHDF [1] is > 1000 µM. Also, in assay [2], the Selectivity ratio was > 100. The figures for the IC50 in the assay on MRC5 [4] and in the assay on NHDF [3] were 85 µM and 10 µM, respectively.
In the case of `Nc1ncnc2c1ncn2C1CC=C(P(=O)(O)O)OC1CO` (stereo not given), the CC50 in the assay on NHDF [1] was > 1000 µM. In addition, the Selectivity ratio in assay [2] was > 11. Further, in the assay with NHDF [3], the IC50 is 90 µM.
As to `Nc1nc(O)c2ncn([C@@H]3C=C[C@H](P(=O)(O)O)O[C@@H]3CO)c2n1`, the CC50 in the assay with NHDF [1] was > 1000 µM. Further, the IC50 is 275 µM in the assay with MRC5 [4] and > 300 µM in the assay on NHDF [3].
`Nc1ccn([C@@H]2CC=C(P(=O)(O)O)O[C@@H]2CO)c(=O)n1`: in the assay with NHDF [1], the CC50 was > 1000 µM. Besides, the Selectivity ratio in assay [2] is > 25. Also, the 50% inhibitory concentration (IC50) in the assay with MRC5 [4] stood at 90 µM; in the assay on NHDF [3], 40 µM.
The like results for `CC1OC(P(=O)(O)O)C=CC1n1ccc(N)nc1=O` (stereo not given) were, in that order, > 1000 µM, > 5, > 400 µM and 200 µM.
In the case of `Cc1cn(C2CC=C(P(=O)(O)O)OC2CO)c(=O)[nH]c1=O` (stereo not given), the IC50 result in the assay with NHDF [5], in the assay with MRC5 [6] and with NHDF [7] was “Not Active” throughout.
Regarding `Nc1ccn([C@H]2CC=C(P(=O)(O)O)O[C@H]2CO)c(=O)n1`, the IC50 entry with NHDF [5], in the assay with MRC5 [6] and in the assay with NHDF [7] was “Not Active” in each case.
For the compound `Nc1ncnc2c1ncn2[C@@H]1C=C[C@@H](P(=O)(O)O)O[C@@H]1CO`, in the assay on NHDF [1], the CC50 was > 1000 µM. The IC50 with MRC5 [4] is 300 µM; with NHDF [3] it was > 300 µM.
Take `Nc1nc(O)c2ncn([C@@H]3CC=C(P(=O)(O)O)O[C@@H]3CO)c2n1`: the IC50 result in the assay with NHDF [5], in the assay with MRC5 [6] and in the assay with NHDF [7] was “Not Active” throughout.
`Nc1nc(O)c2ncn(C3C=CC(P(=O)(O)O)OC3CO)c2n1` (stereo not given): the IC50 entry in the assay with NHDF [5], in the assay with MRC5 [6] and in the assay on NHDF [7] was “Not Active” throughout.
Take `Cc1cn([C@@H]2C=C[C@H](P(=O)(O)O)O[C@@H]2CO)c(=O)[nH]c1=O`: the IC50 entry with NHDF [5], in the assay on MRC5 [6] and in the assay with NHDF [7] was “Not Active” in each case.
Turning to `Nc1ncnc2c1ncn2[C@@H]1C=C[C@H](P(=O)(O)O)O[C@@H]1CO`, the IC50 entry in the assay with NHDF [5], in the assay on MRC5 [6] and in the assay with NHDF [7] was “Not Active” each time.
As to `Cc1cn([C@@H]2C=C[C@@H](P(=O)(O)O)O[C@@H]2CO)c(=O)[nH]c1=O`, the IC50 result with NHDF [5], in the assay on MRC5 [6] and in the assay on NHDF [7] was “Not Active” throughout.
In the assay with NHDF [1], `Nc1ccn(C[C@@H](CO)OCP(=O)(O)O)c(=O)n1` [CIDOFOVIR] returned a CC50 of 200 µM. Besides, the Selectivity ratio in assay [2] is 400. Also, the IC50 with MRC5 [4] was 10 µM; in the assay with NHDF [3], 0.5 µM.
